Where a SMILES comes first, the peptide text is derived from it.
Columns and labels:
[1] = system: erythrocytes; conditions: literature values, Table II; cited from earlier work
[2] = system: erythrocytes of a sickle cell disease patient; test: Inhibition of sickling; format: cell-based, human; conditions: 30 minutes, deoxygenated with sodium metabisulphite
Experimental: A venous blood sample was obtained from the anticubital vein of a sickle cell disease patient and washed several times with phosphate buffer saline, pH 7.2, consisting of 145.4 mM NaCl, 4.0 mM KCl, 1.65 mM Na2 HPO4, 0.16 mM KH2 PO4, 0.01 mM MgCl2 and 11.1 mM glucose. The buffy coats were removed by aspiration. […] The mixture was well stoppered, incubated at 37° C. and swirled at about 100 cycles per minute in a controlled environment incubator. The standard control consisted of a 300 μl of a 20% cell suspension in the buffer in which the novel compound was dissolved. After an incubation period, 20 μl of the treated cell suspension was deoxygenated with 20 μl of 2.0% sodium metabisulphite or with nitrogen gas and examined with a Zeiss microscope.
[…] They were deoxygenated with sodium metabisulphite and examined under a Zeiss microscope.

[3] = molecular target: T1, purified HbS (Homo sapiens, UniProt P68871, E7V); test: Determination of antigelling property (modified method of Bookchin et al.); format: biochemical; conditions: deoxygenated with sodium dithionite, 37° C.; antigelling = fluid state for more than 20 minutes
T1 construct: 150 μl of 35% of purified HbS were added and vortexed; from tissue
Experimental: The antigelling property of the said new class of compounds was determined by a modified method of Bookchin et al. (1967); (see Bookchin et al, J. Biol. Chem., 242, 248-255, 1967). To 10 μl of a solution of the said new class of compounds in a micro test tube, at about 37° C., 150 μl of 35% of purified HbS were added and vortexed. 15 microliters of a 10% sodium dithionite in 0.05 M phosphate buffer, pH 7.2 were added. The mixture was thoroughly mixed and flushed with nitrogen and quickly stoppered. The micro test tube was incubated at 37° C. for 30 minutes and then transferred to 0° C. for 10 minutes and then returned to 37° C. for 30 minutes. A compound was defined as having antigelling properties when the HbS inhibition mixture remained in the fluid state for a period of more than 20 minutes at 37° C.

[4] = system: erythrocytes; test: Transport of the novel compounds into erythrocytes; format: cell-based, human
Experimental: As sickle cell disease is caused by a defect of the erythrocytes, in order to study transport of a therapeutic agent for the treatment of the disease into erythrocytes, erythrocytes and no other cells must be used for the transport studies.
Washed erythrocytes were prepared by the method described in Example 2 and used for transport studies. The novel class of compounds were radioactively labelled, using for example, [^14 C]-L-Phe.

O=CC(O)CO (racemic) [DL--Glyceraldehyde]
Effective Concentration In Vitro (antisickling) [1]: 20 mM

O=C(Nc1ccccn1)c1ccccc1.O=C(O)c1ccccc1 [2(Benzoyl amino) pyridinium benzoate]
Effective Concentration In Vitro (antisickling) [1]: 50 mM

CC1(C)CCc2cc(CCCC(=O)O)ccc2O1 [3,4-dihydro-2,2-dimethyl 2H-1 Benzopyridirium-6-butyric acid]
Effective Concentration In Vitro (antisickling) [1]: 10 mM

Cl.N[C@@H](Cc1ccccc1)C(=O)OCc1ccccc1 [Compound 1, L--Phe--OBz.HCl]
Percentage of Normal Cells ([2]; 3 mM of the compound): 90%
moles of compound to one mole of HbS at which gelation of HbS is inhibited [3]: 6 moles to one mole HbS
transport into erythrocytes [4]: rapidly transported into erythrocytes by a carrier mediated process
Michaelis constant for transport ([4]; 14C-labelled compound, washed erythrocytes): 0.175 mM
PERCENT OF INCORPORATION ([4]; TIME 0): 0%
PERCENT OF INCORPORATION ([4]; TIME 10): 30%
PERCENT OF INCORPORATION ([4]; TIME 20): 70%
PERCENT OF INCORPORATION ([4]; TIME 30): 90%
PERCENT OF INCORPORATION ([4]; TIME 45): 100%
PERCENT OF INCORPORATION ([4]; TIME 60): 90%

Cl.N[C@@H](Cc1ccc(O)cc1)C(=O)OCc1ccccc1 [Compound 2, L--Tyr--OBz.HCl]
Percentage of Normal Cells ([2]; 0.5 mM of compound): 70%

Cl.N[C@@H](Cc1c[nH]c2ccccc12)C(=O)OCc1ccccc1 [Compound 3, L--Try--OBz.HCl]
Percentage of Normal Cells ([2]; 0.5 mM of compound): 95%
moles of compound to one mole of HbS at which gelation of HbS is inhibited [3]: 4 moles to one mole HbS

Cl.O=C(OCc1ccccc1)[C@@H]1CCCN1 [Compound 4, L--Pro--OBz.HCl]
Percentage of Normal Cells ([2]; 3 mM of the compound): 60%

Br.N[C@@H](Cc1ccccc1)C(=O)OCc1ccc([N+](=O)[O-])cc1 [Compound 6, L--Phe--OBz (pNO2).HBr]
Percentage of Normal Cells ([2]; 3 mM of the compound): 90%

Br.O=C(OCc1ccc([N+](=O)[O-])cc1)[C@@H]1CCCN1 [Compound 7, L--Pro--OBz (pNO2).HBr]
Percentage of Normal Cells ([2]; 3 mM of the compound): 80%

Cc1ccc(S(=O)(=O)O)cc1.NC(Cc1c[nH]cn1)C(=O)OCc1ccc([N+](=O)[O-])cc1 [Compound 8, L--His--OBz (pNO2) pTS]
Percentage of Normal Cells ([2]; 3 mM of the compound): 70%

Br.C[C@H](N)C(=O)N[C@@H](Cc1ccccc1)C(=O)OCc1ccccc1 [Compound 9, L--Ala--L--Phe--OBz.HBr]
Percentage of Normal Cells ([2]; 3 mM of the compound): 90%

Br.NCC(=O)N[C@@H](Cc1ccccc1)C(=O)OCc1ccccc1 [Compound 10, L--Gly--L--Phe--OBz.HBr] (HELM PEPTIDE1{G.F.[c1ccc(CO[*:1])cc1]}$$$$V2.0)
Percentage of Normal Cells ([2]; 3 mM of the compound): 90%

N[C@@H](Cc1ccccc1)C(=O)NCc1ccccc1 [Compound 11, L--Phe--Benzyl amide]
Percentage of Normal Cells ([2]; 3 mM of the compound): 70%

CC(C)[C@H](N)C(=O)OCc1ccccc1 [Compound 12, L--Val--OBz]
Percentage of Normal Cells ([2]; 3 mM of the compound): 50%

CC(C)C[C@H](N)C(=O)OCc1ccccc1 [Compound 13, L--Leu--OBz]
Percentage of Normal Cells ([2]; 3 mM of the compound): 55%

Br.CC(NC(=O)C(N)Cc1ccccc1)C(=O)OCc1ccccc1 [Compound 14, L--Phe--L--Ala--OBz.HBr]
Percentage of Normal Cells ([2]; 3 mM of the compound): 70%

Br.NCCCC[C@H](NC(=O)[C@@H](N)Cc1c[nH]c2ccccc12)C(=O)OCc1ccccc1 [Compound 15, L--Try--Lys--OBz.HBr] (HELM PEPTIDE1{W.K.[c1ccc(CO[*:1])cc1]}$$$$V2.0)
Percentage of Normal Cells ([2]; 3 mM of the compound): 70%

Cl.N[C@H](Cc1ccccc1)C(=O)OCc1ccccc1 [Compound 16, D--Phe--OBz.HCl]
Percentage of Normal Cells ([2]; 3 mM of the compound): 90%
moles of compound to one mole of HbS at which gelation of HbS is inhibited [3]: 6 moles to one mole HbS

CCCCCCCCCCCCCCCCCCOC(=O)[C@@H](N)Cc1ccc(O)cc1.Cl [Compound 17, L--Tyr--O Octadecyl.HCl, reference compound]
Percentage of Normal Cells ([2]; 3 mM of the compound): 10%

N[C@@H](Cc1ccccc1)C(=O)O [Compound 18, L--Phe, reference compound]
Percentage of Normal Cells ([2]; 3 mM of the compound): 0%

NCCSSCCN [Cystamine]
Effective Concentration In Vitro (antisickling) [1]: 220 mM

CC(=O)Oc1c(Br)cc(Br)cc1C(=O)O [Dibromo aspirin]
Effective Concentration In Vitro (antisickling) [1]: 5 mM

COC(=N)CCCCC(=N)OC [Dimethyl Adipimidate]
Effective Concentration In Vitro (antisickling) [1]: 10 mM

N#C[O-].[K+] [Potassium Cyanate]
Effective Concentration In Vitro (antisickling) [1]: 100 mM

Cc1ncc(CO)c(C=O)c1O [Pyridoxal]
Effective Concentration In Vitro (antisickling) [1]: 20 mM

NC(N)=O [Urea]
Effective Concentration In Vitro (antisickling) [1]: 100 mM

Source: patent US4390526A, “Pharmaceutical agents for the treatment of sickle cell disease” (Yeda Research & Development Co. Ltd., priority 1979, dated 1983)
